Patent publication US6274568A, “Compounds for altering cell surface sialic acids and methods of use therefor” (priority 1999, dated 2001)

Tested on: NG108-15 cells
Test: Uptake of mannosamine precursors and conversion to sialic acids (precursor pool, gangliosides, glycoproteins) in NG108-15 cells, HPLC
Format: cell-based, mouse neuroblastoma/rat glioma hybrid
Description: Cells were harvested using hypertonic Ca^2+ - and Mg^2+ -free phosphate-buffered saline containing 1 mM EDTA, collected by centrifugation, and homogenized in ice-cold water using a Potter-Elvehjem glass/Teflon homogenizer. Methanol (2.6 volumes) was added, the suspension mixed and brought to ambient temperature, then chloroform (1.3 volumes, based on the original homogenate) was added and the suspension mixed vigorously. The suspension was centrifuged 30 min at 2,000×g. After collecting the supernatant, the pellet (containing precipitated proteins) was resuspended in water or concentrated ammonium hydroxide and a portion was used for protein assay (BCA, Pierce, Rockford, Ill.). The supernatant was partitioned by adjusting the chloroform-methanol-water ratio to 4:8:5.6 by addition of water, mixing thoroughly, and centrifuging as above. The upper phase was collected and a portion was subjected to reverse phase chromatography, using Sep-Pak C18 cartridges (Waters, Milford, Mass.), to isolate gangliosides (Schnaar, Methods Enzymol. 230:371, 1994).
To quantify and identify sialic acids, a portion of resolublized protein, organic/aqueous soluble pool, or reverse-phase purified gangliosides was evaporated to dryness in a 500-μl polypropylene tube and 20 μl of 0.1 M HCl/0.25 M NaCl was added. One Ampliwax bead (Perkin Elmer Corp, Foster City, Calif.) per reaction was added to block evaporation, and the sample hydrolyzed for 3 h at 80° C. Released sialic acids were analyzed by injecting an aliquot (1-10 μl) onto a Dionex high pressure liquid chromatography system (Dionex Corporation, Sunnyvale, Calif.) using a HPIC-AS6 column and a pulsed amperometric detector. Elution solutions were: A, 0.75 mM NaOH; B, 200 mM NaOH; and C, 400 mM sodium acetate in 50 mM NaOH. NeuAc and NeuPr were resolved by elution with 40% A, 50% B, 10% C for 15 min at 1 ml/min. NeuGc was resolved in separate injections using step gradient elution: 0-1.8 min, 18% A, 50% B, 32% C; 2-10 min, 40% B, 60% C. Sialic acids were identified by comparison of their elution time with those of standard NeuAc, NeuPr and NeuGc and were quantified in comparison to a standard curve of commercial NeuAc (for NeuAc and NeuPr) or NeuGc.
To confirm that the quantified peaks represented sialic acids, 10 μl of acid hydrolysates were treated with 1 μl of 1 M sodium phosphate (pH 7.2) and 10 μl of 0.1 M NaOH. Neutralized samples were incubated at 37° C. for 2 h with or without 0.9 U of N-acetylneuraminic acid aldolase (Sigma), 32 μM NADH and 0.1 μg lactate dehydrogenase. Sialic acid content in the ganglioside and glycoprotein fractions is expressed per mg of total cell protein. Precursor pool sialic acid (sialic acid plus CMP-sialic acid) was calculated by subtracting the ganglioside value from the organic/aqueous pool value, both expressed per mg of cell protein.
Sialic acid is biosynthesized from the precursor sugar N-acetylmannosamine (FIG. 2). In the present invention, sialic acids are converted on live neuronal cells from NeuAc, which is a key determinant for MAG binding, to NeuGc, which is non-permissive for MAG binding. A potential NeuGc precursor, N-glycolylmannosamine monoacetate (ManNGcMA, FIG. 1, R1 =H) was tested for its ability to generate altered sialic acids in neuronal and non-neuronal cells. N-propanoylmannosamine (ManNPr) and other N-acyl mannosamine derivatives have been used to modify glycoprotein associated sialic acids to the corresponding N-acylneuraminic acid. N-propanoyl-mannosamine (ManNPr), was used as a positive control. […] Cell pellets were fractioned into lipid associated, protein associated, and intracellular (lipid and cytoplasmic which may consist of oligosaccharide-bound, free, or CMP-activated sialic acid) sialic acids and hydrolyzed to release sialic acid. The hydrolyzed samples were then analyzed by HPLC to determine sialic acid content. […]

[1] = 1 mM, 48 h, listed as ManNGc-OAc
[2] = 1 mM, longer incubation (up to 144 h)

CC(=O)OCC(=O)N[C@@H]1C(OC(C)=O)O[C@H](COC(C)=O)[C@@H](OC(C)=O)[C@@H]1OC(C)=O (stereo partly drawn) [ManNGcPA, N-glycolylmannosamine pentaacetate]
conversion of ganglioside sialic acids to the NeuGc form (0.02 mM, 48 h): ~50% | conversion to the NeuGc form relative to 5 mM ManNGcMA (0.1 mM ManNGcPA vs 5 mM ManNGcMA, 48 h): ≈ 2 fold | glycoprotein sialic acids as NeuGc (0.1 mM, 48 h): 19.8% | intracellular sialic acid in the form of NeuGc (0.1 mM, 48 h): 20.6% | total lipid associated sialic acid as NeuGc (0.1 mM, 48 h): 17% | protein sialic acid, average over the experiment (mean±S.D.) (0.25 mM): 3.8±1.2 nmol/mg protein | total ganglioside sialic acid, average over the experiment (mean±S.D.) (0.25 mM): 3.2±0.7 nmol/mg total cell protein | glycoconjugate sialic acid in the NeuGc form (0.25 mM or 1 mM, 96 h): > 70% | reversal of the conversion on withdrawal of the precursor (0.25 mM, 24 h of chase): partial reversal of the conversion | conversion of NeuAc to NeuGc in gangliosides (0.25 mM, 48 h): > 70% | conversion of NeuAc to NeuGc in glycoproteins (0.25 mM, 96 h, relative to >70% in gangliosides): a similar conversion in glycoproteins | conversion from NeuAc to NeuGc (precursor pool) (1 mM, 48 h): 82% | intracellular sialic acid in the form of NeuGc (1.0 mM, 48 h): 76.6% | ganglioside (lipid associated) sialic acid as NeuGc [1]: 51.5% | glycoprotein (protein associated) sialic acid as NeuGc [1]: 47% | glycoconjugate sialic acid in the NeuGc form (1 mM, 144 h): 80% | ganglioside sialic acid as NeuGc [2]: ≈ 80% | glycoprotein sialic acid as NeuGc [2]: 60-70% | sialic acid precursor pool in the NeuGc form (1 mM, within 24 h (remained high up to 144 h)): > 80% | sialic acid precursor pool size (0.1 or 1.0 mM ManNGcPA, or 5 mM ManNGcMA, 48 h): none of these treatments significantly altered the sialic acid precursor pool size | change in lipid or protein associated sialic acid compared to DMSO treated control (0.1 or 1.0 mM, 48 h): no significant decrease in cell viability, or change in lipid or protein associated sialic acid | total ganglioside sialic acid level (0.1 or 1.0 mM, 48 h): not significantly altered | total glycoprotein sialic acid level (0.1 or 1.0 mM, 48 h): not significantly altered | increase in potency due to peracetylation (ManNGcPA vs ManNGcMA, 48 h): 100 fold
